In patent publication US8263609B2, “Tetrahydro-β-carbolin-sulfonamide derivatives as 5-Ht6 ligands” (Laboratorios Del Dr. Esteve, S.A., priority 2005, dated 2012) one finds melting point, Ki and inhibition data, which are given here for 42 compounds.

One may read the melting point as the temperature, or range, at which the solid turns liquid. What is called Ki is the equilibrium dissociation constant of an inhibitor or competing ligand from its target. The inhibition is the share of the control response that was lost under treatment.

Data set [1] deals with T1, 5HT6-human recombinant receptor (Homo sapiens, UniProt P50406).
T1 construct: purchased Receptor Biology; host or cells: HEK-293 cell membranes
T1 sequence (P50406 whole entry): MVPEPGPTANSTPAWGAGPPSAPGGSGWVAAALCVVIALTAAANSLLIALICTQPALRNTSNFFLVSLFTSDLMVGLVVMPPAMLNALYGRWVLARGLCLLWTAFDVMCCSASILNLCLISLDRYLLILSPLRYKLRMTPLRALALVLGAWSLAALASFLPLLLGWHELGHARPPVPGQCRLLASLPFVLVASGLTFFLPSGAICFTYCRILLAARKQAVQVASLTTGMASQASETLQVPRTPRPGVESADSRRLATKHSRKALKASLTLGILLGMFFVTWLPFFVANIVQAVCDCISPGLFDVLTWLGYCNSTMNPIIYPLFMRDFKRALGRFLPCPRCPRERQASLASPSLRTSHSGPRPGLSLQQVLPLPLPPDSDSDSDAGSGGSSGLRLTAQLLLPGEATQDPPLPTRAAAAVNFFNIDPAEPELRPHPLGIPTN
The experiment in a line: Binding to Serotonin Receptor 5HT6 ([3H]-LSD radioligand displacement, HEK-293 cell membranes). As to conditions: [3H]-LSD 2.7 nM, HEK-293 membranes; for Ki: non-linear regression EBDA/LIGAND; for inhibition at 0.1 µM: compound at 10^−7 M, 60 min, 37° C. The protocol: Binding to Serotonin Receptor 5HT6
Cell membranes of HEK-293 cells expressing the 5HT6-human recombinant receptor were supplied by Receptor Biology. In said membranes the receptor concentration is 2.18 pmol/mg protein and the protein concentration is 9.17 mg/ml. The experimental protocol follows the method of B. L. Roth et al. [B. L. Roth et al., The Journal of Pharmacology and Experimental Therapeutics, 1994, 268, 1403] with the following slight changes. The respective part of the literature description is hereby incorporated by reference and forms part of the disclosure.
The commercial membrane is diluted (1:40 dilution) with the binding buffer: 50 mM Tris-HCl, 10 mM MgCl2, 0.5 mM EDTA (pH 7.4). The radioligand used is [^3H]-LSD at a concentration of 2.7 nM with a final volume of 200 μl. incubation is initiated by adding 100 μl of membrane suspension, (≈22.9 μg membrane protein), and is prolonged for 60 minutes at a temperature of 37° C. The incubation is ended by fast filtration in a Brandel Cell Harvester through fiber glass filters made by Schleicher & Schuell GF 3362 pretreated with a solution of polyethylenimine at 0.5%. The filters are washed three times with three milliliters of buffer Tris-HCl 50 mM pH 7.4. The filters are transferred to flasks and 5 ml of Ecoscint H liquid scintillation cocktail are added to each flask. The flasks are allowed to reach equilibrium for several hours before counting with a Wallac Winspectral 1414 scintillation counter. Non-specific binding is determined in the presence of 100 μM of serotonin. Tests were made in triplicate. The inhibition constants (Ki, nM) were calculated by non-linear regression analysis using the program EBDA/LIGAND described in Munson and Rodbard, Analytical Biochemistry, 1980, 107, 220, which is hereby incorporated by reference and forms part of the disclosure.
Background: Loss of bound radioactivity is the signal in a displacement assay; it reports binding, not function.

Regarding `CN1CCc2c([nH]c3ccc(NS(=O)(=O)c4cccc5c(N(C)C)cccc45)cc23)C1`, the melting point lay within 241 to 242 °C.
`CN1CCc2c([nH]c3ccc(NS(=O)(=O)c4cc5ccccc5o4)cc23)C1` displayed a melting point of 165 to 166 °C.
Compound `CN1CCc2c([nH]c3ccc(NS(=O)(=O)c4ccc(F)c5ccccc45)cc23)C1` registered a melting point of 236 to 238 °C.
With `CN1CCc2c([nH]c3ccc(NS(=O)(=O)c4ccc5ccc(Cl)cc5c4)cc23)C1`, the melting point lay within 230 to 231 °C.
For the compound `CCN1CCc2c([nH]c3ccc(NS(=O)(=O)c4ccc5ccccc5c4)cc23)C1`, the melting point is 174 to 176 °C.
On the same count and under the same terms, the result for `O=S(=O)(Nc1ccc2[nH]c3c(c2c1)CCN(CC(F)(F)F)C3)c1c(Cl)nc2sccn12` reads 232 to 233 °C.
For the compound `O=S(=O)(Nc1ccc2[nH]c3c(c2c1)CCN(CC(F)(F)F)C3)c1ccc2c(Cl)cccc2c1`, the melting point lay in the range of 164 to 166 °C.
Same read-out and setting: the figure for `O=S(=O)(Nc1ccc2[nH]c3c(c2c1)CCN(CC(F)(F)F)C3)c1csc2ccccc12` is 173 to 175 °C.
Take `CN1CCc2c([nH]c3ccc(NS(=O)(=O)c4cccc5ccccc45)cc23)C1`: the melting point lay within 245 to 246 °C.
`CN1CCc2c([nH]c3cccc(NS(=O)(=O)c4c(Cl)nc5sccn45)c23)C1` came in with a melting point of 252 to 253 °C.
For `CN1CCc2c([nH]c3cccc(NS(=O)(=O)c4csc5ccccc45)c23)C1`, the melting point lay within 236 to 237 °C.
On the same count and under the same terms, the figure for `CN1CCc2c([nH]c3cccc(NS(=O)(=O)c4cccc5ccccc45)c23)C1` is 217 to 218 °C; for `CN1CCc2c([nH]c3cccc(NS(=O)(=O)c4ccc5c(Cl)cccc5c4)c23)C1` it is 245 to 247 °C.
With `CN1CCc2c([nH]c3cc(NS(=O)(=O)c4csc5ccccc45)ccc23)C1`, the melting point is 255 to 257 °C.
On the same count and under the same terms, the result for `CN1CCc2c([nH]c3cc(NS(=O)(=O)c4ccc5c(Cl)cccc5c4)ccc23)C1` reads 257 to 259 °C; that for `CN1CCc2c([nH]c3c(NS(=O)(=O)c4cccc5c(Cl)cccc45)cccc23)C1`, 251 to 252 °C.
`CN1CCc2c([nH]c3c(NS(=O)(=O)c4ccc5c(Cl)cccc5c4)cccc23)C1` gave a melting point of 256 to 257 °C.
Compound `CN1CCc2c([nH]c3c(NS(=O)(=O)c4cccc5c(N(C)C)cccc45)cccc23)C1` gave a melting point of 225 to 226 °C.
Consider `CN1CCc2c([nH]c3c(NS(=O)(=O)c4c(Cl)nc5sccn45)cccc23)C1`, for which the melting point was 230 to 232 °C.
In turn, `CN1CCc2c([nH]c3c(NS(=O)(=O)c4cccc5ccccc45)cccc23)C1` gave a melting point of 259 to 260 °C.
For the compound `CN1CCc2c([nH]c3c(NS(=O)(=O)c4cccc5nsnc45)cccc23)C1`, the melting point is 238 to 240 °C.
`CN1CCc2c([nH]c3c(NS(=O)(=O)c4cc5ccccc5o4)cccc23)C1` displayed a melting point of 229 to 231 °C.
With `CN1CCc2c([nH]c3c(NS(=O)(=O)c4cccc5nonc45)cccc23)C1`, the melting point fell in the range of 246 to 247 °C.
`Cc1c(S(=O)(=O)Nc2ccc3[nH]c4c(c3c2)CCN(C)C4)sc2ccc(Cl)cc12` yielded a melting point of 259 to 260 °C.
For `CN1CCc2c([nH]c3ccc(NS(=O)(=O)c4cccc5nsnc45)cc23)C1`, the melting point fell in the range of 244 to 245 °C.
Still for that read-out and setting: the result for `CC(=O)Nc1ccc(S(=O)(=O)Nc2ccc3[nH]c4c(c3c2)CCN(C)C4)cc1` reads 232 to 234 °C; that for `CN1CCc2c([nH]c3ccc(NS(=O)(=O)c4ccc(N)cc4)cc23)C1`, 236 to 237 °C.
On the same count and under the same terms, the figure for `CC(=O)Nc1nc(C)c(S(=O)(=O)Nc2ccc3[nH]c4c(c3c2)CCN(C)C4)s1` is 199 to 200 °C.
The compound `CN1CCc2c([nH]c3ccc(NS(=O)(=O)c4c(Cl)nc5sccn45)cc23)C1` [Example 1, 6-chloro-imidazo[2,1-b]thiazole-5-sulfonic acid (2-methyl-2,3,4,9-tetrahydro-1H-β-carbolin-6-yl)-amide] had a melting point of 232 to 233 °C. Further, in data set [1], the Ki worked out at 0.9 nM and the inhibition at 0.1 µM amounted to 80.7%.
Taken in the same sequence, the figures for `CN1CCc2c([nH]c3ccc(NS(=O)(=O)c4csc5ccccc45)cc23)C1` [Example 2, Benzo[b]thiophene-3-sulfonic acid (2-methyl-2,3,4,9-tetrahydro-1H-β-carbolin-6-yl)-amide] were 224 to 226 °C, 2.8 nM and 79.5%.
In the case of `CN1CCc2c([nH]c3ccc(NS(=O)(=O)c4ccc5c(Cl)cccc5c4)cc23)C1` [Example 4, 5-Chloro-naphthalene-2-sulfonic acid (2-methyl-2,3,4,9-tetrahydro-1H-β-carbolin-6-yl)-amide], the inhibition at 0.1 µM in data set [1] came to 70.6%.
`CN1CCc2c([nH]c3ccc(NS(=O)(=O)c4ccc5ccccc5c4)cc23)C1` [Example 12, Naphthalene-2-sulfonic acid (2-methyl-2,3,4,9-tetrahydro-1H-β-carbolin-6-yl)-amide] registered a melting point of 244 to 245 °C. Further, in data set [1], the Ki came out at 15.9 nM and the inhibition at 0.1 µM is 89.7%.
`Cc1ccc2sc(S(=O)(=O)Nc3ccc4[nH]c5c(c4c3)CCN(C)C5)cc2c1` [Example 13, 5-Methyl-benzo[b]thiophene-2-sulfonic acid (2-methyl-2,3,4,9-tetrahydro-1H-β-carbolin-6-yl)-amide] showed a melting point of 241 to 242 °C. Moreover, in data set [1], the inhibition at 0.1 µM is 71.1%.
Consider `CN1CCc2c([nH]c3ccc(NS(=O)(=O)c4ccc5cc(Cl)ccc5c4)cc23)C1` [Example 16, 6-Chloro-naphthalene-2-sulfonic acid (2-methyl-2,3,4,9-tetrahydro-1H-β-carbolin-6-yl)-amide], for which the melting point lay within 174 to 175 °C. Besides, the inhibition at 0.1 µM in data set [1] was determined as 85%.
For the compound `CCN1CCc2c([nH]c3ccc(NS(=O)(=O)c4c(Cl)nc5sccn45)cc23)C1` [Example 19, 6-Chloro-imidazo[2,1-b]thiazole-5-sulfonic acid (2-ethyl-2,3,4,9-tetrahydro-1H-β-carbolin-6-yl)-amide], the melting point was in the range of 219 to 222 °C. For the same compound, in data set [1], the Ki was determined as 1.1 nM and the inhibition at 0.1 µM was found to be 97%.
In turn, `CCN1CCc2c([nH]c3ccc(NS(=O)(=O)c4csc5ccccc45)cc23)C1` [Example 22, Benzo[b]thiophene-3-sulfonic acid (2-ethyl-2,3,4,9-tetrahydro-1H-β-carbolin-6-yl)-amide] returned a melting point of 215 to 216 °C. For the same compound, in data set [1], the Ki is 36.7 nM and the inhibition at 0.1 µM came to 84.6%.
Taken in the same sequence, the figures for `CCCN1CCc2c([nH]c3ccc(NS(=O)(=O)c4c(Cl)nc5sccn45)cc23)C1` [Example 26, 6-Chloro-imidazo[2,1-b]thiazole-5-sulfonic acid (2-propyl-2,3,4,9-tetrahydro-1H-β-carbolin-6-yl)-amide] were 206 to 207 °C, 2 nM and 87.9%.
`CC(C)N1CCc2c([nH]c3ccc(NS(=O)(=O)c4c(Cl)nc5sccn45)cc23)C1` [Example 27, 6-Chloro-imidazo[2,1-b]thiazole-5-sulfonic acid (2-isopropyl-2,3,4,9-tetrahydro-1H-β-carbolin-6-yl)-amide] displayed a melting point of 234 to 235 °C. Also, the inhibition at 0.1 µM in data set [1] worked out at 81.8%.
`CN1CCc2c([nH]c3ccc(NS(=O)(=O)c4ccc5ccccc5c4)cc23)C1c1ccccc1` (stereo not drawn) [Example 28, Naphthalene-2-sulfonic acid (2-methyl-1-phenyl-2,3,4,9-tetrahydro-1H-β-carbolin-6-yl)-amide] came in with a melting point of 255 to 260 °C.
The same measure, in the same setting: the result for `CN1CCc2c([nH]c3ccc(NS(=O)(=O)c4csc5ccccc45)cc23)C1c1ccccc1` (stereo not drawn) [Example 29, Benzo[b]thiophene-3-sulfonic acid (2-methyl-1-phenyl-2,3,4,9-tetrahydro-1H-β-carbolin-6-yl)-amide] reads 232 to 234 °C.
Regarding `CN1CCc2c([nH]c3cc(NS(=O)(=O)c4c(Cl)nc5sccn45)ccc23)C1` [Example 35, 6-Chloro-imidazo[2,1-b]thiazole-5-sulfonic acid (2-methyl-2,3,4,9-tetrahydro-1H-β-carbolin-7-yl)-amide], the melting point fell in the range of 225 to 227 °C. In data set [1], the Ki worked out at 8 nM and the inhibition at 0.1 µM is 90%.
The compound `O=S(=O)(Nc1ccc2[nH]c3c(c2c1)CCNC3)c1c(Cl)nc2sccn12` [Example 47, 6-chloro-imidazo[2,1-b]thiazole-5-sulfonic acid (2,3,4,9-tetrahydro-1H-β-carbolin-6-yl)-amide] displayed a melting point of 242 to 244 °C.
